Entries after “also recorded” stand apart in the source; their conditions may differ. Counter-ions that a name gives are not always drawn.

The results in this text go back to US20180071280A1, “MODULATORS OF CELL DEATH PROCESSES” (URIFER LTD., priority 2015, published 2018).

One data set relates to SW620 CC xenografts. The experiment in a line: SW620 CC xenografts in nude mice. It is filed as in vivo. The protocol: All animal experiments were performed according to the guidelines of the Institutional Animal Care and Use Committee of the Bar-Ilan University. Nude mice (Harlan, Israel) were transferred from ad libitum diet to a more strict diet 2 days before inoculation to lower blood glucose levels, and housed one per cage to ensure an even consumption of food. The diet was comprised of 3 g/mouse/day of standard chow, given at the same time every day. The food was consumed within an average time of 2 hours, consequently the mice were kept without food for the next 22 hours until the daily ration. The mice were kept on this diet throughout the experiment. Mice were inoculated with 1.5×10^6 SW620 CC cells and divided randomly into respective experimental groups. In brief, cells were harvested, counted under the microscope, concentrated by centrifugation (5 min at 500G) and re-suspended in Hank's balanced salt solution (Biological Industries, Israel). Before inoculation the cell suspension was mixed with Martial (BD biosciences, USA) in 1:1 ratio. Four days post-inoculation mice were randomized and placed in cages (n=4 per cage). […]
Mice were sacrificed at day 22 of the xenograft experiments, as described above. […] The serum was analyzed immediately using the Cobas 6000-501 chemistry analyzer (Roche Diagnostics, USA) according to the manufacturer's protocols for each assay.

The target in another data set is MINK1 (Homo sapiens, UniProt Q8N4C8). The experiment in a line: Kinase panel assay, MINK1. It is filed as biochemical. The conditions noted are these: above threshold. As to the method:
Kinase panel assays were performed using the FRET-based Z′-LYTE, Lantha Screen and Adapta enzymatic kinase assay systems (Life Technologies, Carlsbad, Calif.), which were carried out using the SelectScreen Kinase Profiling Service (Life Technologies). The standard reaction contained 2 μM peptide substrate, ATP at the optimal assay concentration, 50 mM HEPES (pH 7.5), 0.01% Brij-35, 10 mM MgCl2, 1 mM EGTA, and the tested kinase. Each kinase was checked for its activity in duplicate data points (n=2) and was assayed following the detailed procedures outlined in the SelectScreen service. Percent inhibition or ATP displacement (For Lantha screen) represent a ratio of phosphorylated/ATP bound product formed in the presence of the compound compared with phosphorylated/ATP bound product formed in reactions containing 1% DMSO.
Kinome technique was used for monitoring phosphorylation events and phosphorylation targets of 0260-Fer interaction, using peptide arrays for human targets and phosphorylation-specific antibodies. Construction of peptide arrays relied on information from phosphorylation databases. The following proteins were determined as significant above the threshold of 40% kinase activity inhibition or ATP displacement to the Kinase domain site.

Another data set has as its system PARP-1. As to the kind of experiment: PARP-1 poly-ADP-ribosylation activity in CC cells (WB). It counts as cell-based, human. The conditions noted are these: CC cells. As to the method: (§1) WB analyses were carried out as previously described before. In brief, cells were lysed in RIPA buffer mixed with protease inhibitors and separated on SDS-PAGE gel, transferred to PVDF membrane treated with 5% skim milk to exclude non-specific background and incubated with a primary antibody over-night. The membrane was incubated for 1 h with a secondary antibody conjugated to Horseradish Peroxidase (HRP). The protein-antibody complex was visualized using the SuperSignal West Pico Chemiluminescent Substrate (Thermo scientific, USA).

Data set [1] addresses T1, Fer (Homo sapiens, UniProt P16591). The experiment in a line: Immunoprecipitation of Fer from 0260 treated SW620 CC cells. It counts as binding. Details: endogenous in cells; host or cells: SW620 colon carcinoma cells. As to the method:
(§2) Protein lysates (1 mg) were prepared from tissues of adult mice according to previously described protocol, including incubation with Protein A Sepharose (GE Healthcare) to avoid nonspecific binding. Protein lysates were incubated with specific antibodies diluted 1:100 overnight at 4° C. Antigen-antibody complexes were precipitated with Protein A Sepharose, washed twice in PBS and eluted in Sample Buffer (2% SDS, 1% DTT 0.02% bromophenol blue 10% glycerol, 12.5 mM EDTA, 50 mM Tris-HCl pH 6.8) at room temperature for 10 min and at 100° C. for 8 min. Eluates were separated on SDS-PAGE and visualized by WB using specific antibodies.
To examine the effect of 0260 micellar formulation on Fer in malignant cells, the kinase was immuno-precipitated from untreated and from 0260 treated SW620 CC cells.

A further data set concerns CC cells. The experiment in a line: Mitochondrial membrane potential (TMRE) in CC cells. It counts as cell-based, human. The conditions noted are these: malignant cells. As to the method: For microscopic and ELISA based analyses of cells MMP, Tetra-Methyl-Rhodamine-Ethyl ester (TMRE) incorporation assay was carried out according to the manufacturer's instructions (Abcam, USA).

The next data set relates to SW620 cells. As to the kind of experiment: TEM analysis of mitochondria in SW620 cells. It counts as cell-based, human. As to the method:
Cells were grown in MEM or DMEM, washed twice with PBS and fixed for 5 minutes in Karnovsky fixative (2.5% glutaraldehyde, 2.5% paraformaldehyde in cacodylate buffer pH 7.4) on the tissue culture plate. Cells were then harvested, and transferred to 1.5 ml tube for further 1 h fixation at room temperature. The cells were then stored O.N at 4C° after which the samples were washed in 0.1 M cacodylate buffer and post-fixed with 1% OsO4 in 0.1 M sodium cacodylate buffer (Sigma-Aldrich, Israel) for 1 h. Samples were then dehydrated in alcohol and propylene oxide followed by embedding in Agar Mix. Thin sections (60 nm) were cut, stained with uranyl acetate and lead citrate, and observed in a FEI Tecnai transmission electron microscope.

Data set [2] deals with T1, Fer. As to the kind of experiment: Fer autophosphorylation in RKO CC cells (IP/WB). It counts as cell-based. The arrangement: endogenous in cells. The conditions noted are these: 24 h. As to the method:
as §1, §2

Data set [3] concerns AMPK-mTOR signaling pathway. As to the kind of experiment: WB of AMPK-mTOR signaling pathway phosphorylation in CC cells. It is filed as cell-based, human. As to the method:
as §1

Data set [4] in a line: Toxicological and histopathological studies in mice. It counts as in vivo. The protocol: All animal experiments were performed according to the guidelines of the Institutional Animal Care and Use Committee of the Bar-Ilan University. Nude mice (Harlan, Israel) were transferred from ad libitum diet to a more strict diet 2 days before inoculation to lower blood glucose levels, and housed one per cage to ensure an even consumption of food. The diet was comprised of 3 g/mouse/day of standard chow, given at the same time every day. The food was consumed within an average time of 2 hours, consequently the mice were kept without food for the next 22 hours until the daily ration. The mice were kept on this diet throughout the experiment. Mice were inoculated with 1.5×10^6 SW620 CC cells and divided randomly into respective experimental groups. In brief, cells were harvested, counted under the microscope, concentrated by centrifugation (5 min at 500G) and re-suspended in Hank's balanced salt solution (Biological Industries, Israel). Before inoculation the cell suspension was mixed with Martial (BD biosciences, USA) in 1:1 ratio. Four days post-inoculation mice were randomized and placed in cages (n=4 per cage). Mice were injected intra-peritonealy every 12 h for 22 days with 25 mg/kg or 50 mg/kg of the micellar and non-micellar 0260 formulations, and control mice—with empty micelles or vehicles. Mice were sacrificed at day 22, tissues from relevant organs were fixed in paraffin, sectioned (7 μm sections) and stained with Hematoxylin and Eosin stain (H&E stain) for future histopathological evaluation. Blood samples were drawn from sacrificed mice.
Mice were sacrificed at day 22 of the xenograft experiments, as described above. Tissues from relevant organs and tumors were fixed in paraffin, sectioned (7 μm sections) and stained with Hematoxylin and Eosin stain (H&E stain) for histopathological evaluation as previously described. Blood samples were drawn by cardiac puncture. […] The serum was analyzed immediately using the Cobas 6000-501 chemistry analyzer (Roche Diagnostics, USA) according to the manufacturer's protocols for each assay.

T1 sequence (P16591 whole entry): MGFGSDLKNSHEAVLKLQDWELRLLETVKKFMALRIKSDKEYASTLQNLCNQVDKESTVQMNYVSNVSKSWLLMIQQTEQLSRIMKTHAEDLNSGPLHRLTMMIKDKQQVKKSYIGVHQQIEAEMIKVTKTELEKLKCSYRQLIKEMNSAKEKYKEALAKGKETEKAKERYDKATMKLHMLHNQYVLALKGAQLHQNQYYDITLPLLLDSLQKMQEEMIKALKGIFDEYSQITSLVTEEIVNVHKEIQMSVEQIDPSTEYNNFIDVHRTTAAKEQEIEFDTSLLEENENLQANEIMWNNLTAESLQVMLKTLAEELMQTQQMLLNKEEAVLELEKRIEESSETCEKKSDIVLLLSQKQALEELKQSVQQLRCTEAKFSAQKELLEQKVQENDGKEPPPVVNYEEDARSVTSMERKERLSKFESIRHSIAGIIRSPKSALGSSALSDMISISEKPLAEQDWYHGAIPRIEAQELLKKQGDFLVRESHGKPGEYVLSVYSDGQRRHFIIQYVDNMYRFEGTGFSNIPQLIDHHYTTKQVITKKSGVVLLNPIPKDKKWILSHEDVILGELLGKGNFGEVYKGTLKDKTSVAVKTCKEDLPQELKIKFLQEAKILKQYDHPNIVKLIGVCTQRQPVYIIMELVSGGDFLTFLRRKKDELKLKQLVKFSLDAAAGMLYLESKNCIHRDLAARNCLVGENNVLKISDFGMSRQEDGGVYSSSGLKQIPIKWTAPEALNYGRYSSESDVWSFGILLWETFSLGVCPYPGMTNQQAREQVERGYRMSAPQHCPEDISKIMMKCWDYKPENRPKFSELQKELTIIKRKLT
Chain of MINK1 (Q8N4C8 1-320 limits assumed): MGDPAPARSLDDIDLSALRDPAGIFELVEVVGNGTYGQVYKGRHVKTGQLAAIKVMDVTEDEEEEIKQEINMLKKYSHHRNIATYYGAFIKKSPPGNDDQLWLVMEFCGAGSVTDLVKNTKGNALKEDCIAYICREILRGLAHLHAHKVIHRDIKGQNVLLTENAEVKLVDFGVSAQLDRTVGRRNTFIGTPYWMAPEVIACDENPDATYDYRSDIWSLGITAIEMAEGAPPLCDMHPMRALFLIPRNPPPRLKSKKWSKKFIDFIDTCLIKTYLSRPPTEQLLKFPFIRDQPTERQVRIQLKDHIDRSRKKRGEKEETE

In the case of `CC(C)c1ccc(-c2cn3nc(N4CCC(CN5CCN(C)CC5)CC4)sc3n2)cc1` [compound 0260, tartarate salt of 6-(4-isopropyl-phenyl)-2-{4-[(4-methyl-piperazin-1-yl)methyl]piperidin-1-yl}-imidazo [2,1-b][1,3,4]thiadiazole], the tumor histopathology entry in the data set with SW620 CC xenografts (SW620 derived tumors dissected at day 22, center and periphery) is “comprised mostly of dead necrotic and un-vascularized tissue”. Moreover, in the data set on SW620 CC xenografts (after 22 days of treatment, IP twice a day, restricted diet), the “decrease in average tumor volume” value was 10 fold. Also, at MINK1, the “kinase activity inhibition or ATP displacement” value is on record as more than 40%. Moreover, the “poly-ADPr / PARP-1 poly-ADP-ribosylation activity” value in the data set on PARP-1 is given as “induction of poly-ADPr; also recorded: significant increase”. Moreover, the “IP of Fer by antibodies toward the N-terminal tail” value at Fer [1] is recorded as “did not disable the IP of Fer”. The “Mitochondrial Membrane Potential (MMP)” value in the data set with CC cells was “depolarization”. Further, in the data set on SW620 cells (16 h), the “mitochondria morphology (TEM)” value is “deformation and loss of the normal elongated shape of mitochondria”. Moreover, the “mitochondria morphology (TEM)” value in the data set on SW620 cells (24 h) was “the mitochondria underwent lysis”. Further, the “mitochondria morphology (TEM)” value with SW620 cells (24 h, high glucose conditions) was “mitochondrial damage was still observed”. For the same molecule, the “Fer autophosphorylation level in cells” value on Fer [2] is recorded as “inhibitory effect”. In data set [3], the AMPK phosphorylation result was “phosphorylated and activated”; the Akt phosphorylation result is recorded as “decrease in the activating phosphorylation”; the “Raptor phosphorylation on serines 792 and 722” value is recorded as “inhibitory phosphorylation”; the mTOR phosphorylation state result is “not changed”. Also, the “toxic effects (blood markers of liver and kidney functions, blood electrolytes)” value in data set [4] (daily injection) is listed as “did not cause any toxic effects or adverse side effects”. Besides, the “histopathology of heart, kidneys and liver” value in data set [4] (mouse, in vivo) was “failed to detect any abnormalities related to toxicity”. In addition, the “effect on animal's weight” value in [4] (xenograft experiments) is “no significant effect”.
